Laboratory results as given in publication PMC8472154 (Molecules, 2021).
Where two headings read alike, the source gives them in different places. Marks after values point to notes of the source that are not given here.

Experiments:
[1] = Nitric oxide free radical scavenging activity (sodium nitroprusside); parameters: key to Half Maximal Inhibitory Concentration IC50 NO.: ---: no activity; conditions: for nitric oxide radical scavenging activity: at the concentrations permitted to evaluate, Figure 3C; for Half Maximal Inhibitory Concentration IC50 NO.: mean ± SD, triplicate
Method: The essential oil NO scavenging activity was estimated using the protocol described by El Guendouz et al. The inhibition percentage was calculated using the formula: Inhibition = [(A0 − (A1 − A2)/A0 × 100]. The A0 is the absorbance of sodium nitroprusside without sample, A1 and A2 were the absorbance of the sample with and without sodium nitroprusside.

α-glucosidase = α-glucosidase (Saccharomyces cerevisiae, UniProt P53341); assay: α-Glucosidase inhibition assay; assay type: biochemical; conditions: mean ± SD, triplicate
Method: The α-glucosidase inhibitor capacity of the essential oils was determined as described by El-Guendouz et al. The crease of absorbance was performed at 405 nm. The inhibition percentage of the enzyme was calculated as follows: I% = [(A0 −A1)/A0) × 100]; where A0 is the absorbance of the control and A1 is the absorbance of the sample. The trials were triplicated.

acetylcholinesterase [2] = target: T1, acetylcholinesterase (Homo sapiens, UniProt P22303); assay: biochemical; assay type: biochemical
Method: The inhibitory activity of the essential oils on acetylcholinesterase was evaluated according to the method previously described. The following formula was used to determine the percentage of inhibition action: Inhibition = [(A0 − A1)/A0) × 100]; where A0 is the absorbance of the control and A1 is the absorbance of the sample.

5-lipoxygenase = 5-lipoxygenase (Glycine max, UniProt P08170); assay: Lipoxygenase inhibition assay (linoleic acid substrate); assay type: biochemical
Method: The 5-lipoxygenase assay was carried out according to the method described by El Guendouz et al. The following formula was used to determine the percentage of inhibition action: Inhibition = [(A0 − A1)/A0) × 100]; where A0 is the absorbance of the control and A1 is the absorbance of the sample.

[3] = Hydrogen peroxide scavenging activity (colorimetric); parameters: key: ---: no activity; conditions: mean ± SD, triplicate
Method: The scavenging hydrogen peroxide was evaluated by a colorimetric assay according to Gupta and Sharma. […] Tests were carried out in triplicate.

tyrosinase [4] = assay: Tyrosinase inhibition assay (L-DOPA oxidation); assay type: biochemical; parameters: inhibition: dose or concentration left out as unconfirmed; conditions: Figure 4C; read-out: tyrosinase inhibition percentage, major terpenes
Method: (§1) The tyrosinase inhibition was carried out by the tyrosinase-dependent L-3,4-dihydroxyphenylalanine (L-DOPA) oxidation assay as previously described. The following formula was used to determine the percentage of inhibition action: Inhibition = [(A0 − A1)/A0) × 100]; with A0 as the absorbance of the control and A1 as the absorbance of the sample.

[5] = DPPH free radical-scavenging activity; conditions: mean ± SD, triplicate
Method: The radical scavenging capacity was estimated according to Bounatirou et al. using 2,20-diphenylpicrylhydrazyl (DPPH) free radicals. The radical inhibition percentage was calculated with the equation: Inhibition = [(A0 − A1)/A0 × 100]; A0 stands for the absorbance of the control and A1 stands for the absorbance of the sample. […] Tests were carried out in triplicate.

[6] = Superoxide anion radical scavenging (nonenzymatic PMS-NADH system); parameters: key: ---: no activity; conditions: mean ± SD, triplicate
Method: Superoxide anion free radical inhibition ability was evaluated using a nonenzymatic PMS-NADH (phenazine methosulfate–nicotinamide adenine dinucleotide) system as previously reported. The inhibition quantification was performed as aforementioned.

MRSA strains = system: MRSA strains; parameters: method as in PMID 31461850; conditions: cited from earlier work
tyrosinase [7] = target: T2, tyrosinase (Homo sapiens, UniProt P14679); assay: Tyrosinase inhibition assay (L-DOPA oxidation); assay type: biochemical; parameters: inhibition: dose or concentration left out as unconfirmed; conditions: 50 mg/mL; Figure 4C
T2 sequence (P14679 19-529): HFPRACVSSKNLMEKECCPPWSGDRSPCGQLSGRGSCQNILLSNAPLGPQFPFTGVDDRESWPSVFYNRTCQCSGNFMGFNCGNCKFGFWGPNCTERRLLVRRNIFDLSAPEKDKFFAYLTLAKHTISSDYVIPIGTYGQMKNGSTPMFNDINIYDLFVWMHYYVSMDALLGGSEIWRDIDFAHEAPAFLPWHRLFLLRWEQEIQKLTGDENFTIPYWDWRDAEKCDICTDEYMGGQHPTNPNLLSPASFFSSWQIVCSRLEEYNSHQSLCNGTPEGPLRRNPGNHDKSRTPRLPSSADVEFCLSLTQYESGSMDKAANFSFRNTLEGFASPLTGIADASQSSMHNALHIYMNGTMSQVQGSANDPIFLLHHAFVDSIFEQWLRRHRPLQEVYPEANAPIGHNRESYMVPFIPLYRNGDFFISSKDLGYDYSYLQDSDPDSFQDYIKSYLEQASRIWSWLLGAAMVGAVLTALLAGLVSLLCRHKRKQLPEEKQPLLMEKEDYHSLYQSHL
Method: as §1

acetylcholinesterase [8] = target: T1, acetylcholinesterase; conditions: cited from earlier work
S. aureus ATCC 6538 = assay: Agar disc diffusion; assay type: cell-based, Staphylococcus aureus; conditions: 5 µL per 6 mm disc, 24 h, diameter including disc, chloramphenicol 30 μg/mL
Method: (§2) The Gram negative bacterium Escherichia coli DSM 1077, and the Gram positive Staphylococcus aureus ATCC 6538 and the methicillin-resistant S. aureus 15 (MRSA 15) were used in the present study. The bacterial strains were recovered from −80 °C in the culture medium Brain Heart Infusion (BHI, Oxoid, Basingstock, UK), when required agar (VWR, Radnor, Philadelphia, PA, USA) at 1.5% w/v.
(§3) The bacterial susceptibility to the combinations Ro:La:Ca at ratio 1:1:1, Ro:La:Ca at ratio 2/3:1/6:16, Ro:La:Ca at ratio 1/6:2/3:16, Ro:La:Ca at ratio 1/6:1/6:2/3, and the components linalool, 1,8 cineole, and camphor, were performed by the agar disc diffusion technique as previously described. Briefly, 100 µL of the bacterial suspension at an OD600nm 0.3–0.4 was inoculated in BHI agar, and sterile discs (∅ 6 mm) were distributed over the surface. A volume of 5 µL of each EO and the individual components 1,8-cineole (52.62 mg/mL), and linalool (16.13 mg/mL), were deposited in the center of each disc. The plates were incubated for 24 h. The diameter of the inhibition zone including the disc was measured. The assay was performed in triplicate (n = 6).

[9] = system: methicillin-resistant S. aureus 15 (MRSA 15); assay: Agar disc diffusion; assay type: cell-based, Staphylococcus aureus; conditions: 5 µL per 6 mm disc, 24 h, diameter including disc, chloramphenicol 30 μg/mL
Method: as §2, §3

E. coli DSM 1077 = assay: Agar disc diffusion; assay type: cell-based, Escherichia coli; conditions: 5 µL per 6 mm disc, 24 h, diameter including disc, chloramphenicol 30 μg/mL
Method: as §2, §3

MRSA 15 biofilm = assay: Biofilm formation inhibition (crystal violet); assay type: cell-based, Staphylococcus aureus; conditions: EO at 2.5, 5 and 10 μL/mL; chlorohexidine 0.2% v/v; 24 h; versus control culture; Figure 5
Method: as §2
(§4) The inhibition of biofilm formation was done using the crystal violet assay. Briefly, 150 µL of an overnight culture prepared as previously mentioned was centrifuged for 10 min at 4 °C. For the preparation of the bacterial suspension, 150 µL of BHI medium supplemented with EOs at the 2.5 µL/mL, 5 µL/mL and 10 µL/mL, chlorhexidine 0.2% (v/v), n-propanol (20%), was added to the centrifuged bacterial culture. Each well containing 180 µL of BHI supplemented with EOs at the appropriate concentration was inoculated with 20 µL of the previous bacterial suspension. The cultures with no EO and in the presence of chlorohexidine (0.2 %, v/v), were used as control. The culture was left to adhere and form a biofilm for 24 h. After this incubation time, non-adherent cells were eliminated and the wells were washed twice with PBS; then, the microplate was left to dry for 15–30 min. […] The absorbance was measured at 595 nm after 15–20 min incubation.

[10] = system: S. aureus ATCC 6538 biofilm; assay: Biofilm formation inhibition (crystal violet); assay type: cell-based, Staphylococcus aureus; conditions: EO at 2.5, 5 and 10 μL/mL; chlorohexidine 0.2% v/v; 24 h; versus control culture; Figure 5
Method: as §2, §4

E. coli DSM 1077 biofilm = assay: Biofilm formation inhibition (crystal violet); assay type: cell-based, Escherichia coli; conditions: EO at 2.5, 5 and 10 μL/mL; chlorohexidine 0.2% v/v; 24 h; versus control culture; Figure 5
Method: as §2, §4

S. aureus = system: S. aureus; parameters: method as in PMID 12485339; conditions: previous study; cited from earlier work
E. coli = system: E. coli; parameters: method as in PMID 12485339; conditions: previous study; cited from earlier work

Chain of 5-lipoxygenase (P08170 whole entry): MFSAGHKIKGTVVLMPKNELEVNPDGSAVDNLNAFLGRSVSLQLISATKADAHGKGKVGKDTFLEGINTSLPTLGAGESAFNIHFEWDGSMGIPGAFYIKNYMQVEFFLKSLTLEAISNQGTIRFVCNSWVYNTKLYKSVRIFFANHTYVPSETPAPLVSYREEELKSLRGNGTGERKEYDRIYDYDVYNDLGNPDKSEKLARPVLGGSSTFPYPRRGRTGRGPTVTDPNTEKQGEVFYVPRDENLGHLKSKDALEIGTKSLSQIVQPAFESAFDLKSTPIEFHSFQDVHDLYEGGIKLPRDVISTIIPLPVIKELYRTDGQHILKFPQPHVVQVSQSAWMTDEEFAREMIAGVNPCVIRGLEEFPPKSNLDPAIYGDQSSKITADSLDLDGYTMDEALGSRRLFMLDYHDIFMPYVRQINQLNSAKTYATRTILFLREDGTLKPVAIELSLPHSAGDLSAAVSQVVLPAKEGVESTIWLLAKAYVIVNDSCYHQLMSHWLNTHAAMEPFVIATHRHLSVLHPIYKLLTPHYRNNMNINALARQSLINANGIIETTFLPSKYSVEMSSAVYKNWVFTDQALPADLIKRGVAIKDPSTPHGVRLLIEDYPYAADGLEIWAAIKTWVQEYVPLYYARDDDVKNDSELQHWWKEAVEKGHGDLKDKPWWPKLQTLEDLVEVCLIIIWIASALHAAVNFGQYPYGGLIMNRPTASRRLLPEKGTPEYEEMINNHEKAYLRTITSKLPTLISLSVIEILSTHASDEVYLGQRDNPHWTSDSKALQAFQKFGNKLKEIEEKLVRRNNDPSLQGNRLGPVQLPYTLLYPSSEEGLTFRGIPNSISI
Chain of α-glucosidase (P53341 whole entry): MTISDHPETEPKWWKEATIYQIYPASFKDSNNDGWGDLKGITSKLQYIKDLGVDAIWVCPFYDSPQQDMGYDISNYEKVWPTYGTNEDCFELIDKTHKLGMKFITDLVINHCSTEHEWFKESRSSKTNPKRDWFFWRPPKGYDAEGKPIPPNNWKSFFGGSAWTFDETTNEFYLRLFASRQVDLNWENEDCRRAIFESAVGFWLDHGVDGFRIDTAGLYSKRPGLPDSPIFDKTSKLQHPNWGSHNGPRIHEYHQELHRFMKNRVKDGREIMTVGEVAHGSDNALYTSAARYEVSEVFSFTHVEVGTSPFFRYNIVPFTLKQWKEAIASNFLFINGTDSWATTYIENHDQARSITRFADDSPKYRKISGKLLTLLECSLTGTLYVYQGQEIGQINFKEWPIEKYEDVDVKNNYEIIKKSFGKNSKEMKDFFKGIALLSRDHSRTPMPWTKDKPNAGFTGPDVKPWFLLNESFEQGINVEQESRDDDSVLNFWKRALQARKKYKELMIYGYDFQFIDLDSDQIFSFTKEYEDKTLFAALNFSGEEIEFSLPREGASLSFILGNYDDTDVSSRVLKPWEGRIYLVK
T1 sequence (P22303 32-614, species assumed): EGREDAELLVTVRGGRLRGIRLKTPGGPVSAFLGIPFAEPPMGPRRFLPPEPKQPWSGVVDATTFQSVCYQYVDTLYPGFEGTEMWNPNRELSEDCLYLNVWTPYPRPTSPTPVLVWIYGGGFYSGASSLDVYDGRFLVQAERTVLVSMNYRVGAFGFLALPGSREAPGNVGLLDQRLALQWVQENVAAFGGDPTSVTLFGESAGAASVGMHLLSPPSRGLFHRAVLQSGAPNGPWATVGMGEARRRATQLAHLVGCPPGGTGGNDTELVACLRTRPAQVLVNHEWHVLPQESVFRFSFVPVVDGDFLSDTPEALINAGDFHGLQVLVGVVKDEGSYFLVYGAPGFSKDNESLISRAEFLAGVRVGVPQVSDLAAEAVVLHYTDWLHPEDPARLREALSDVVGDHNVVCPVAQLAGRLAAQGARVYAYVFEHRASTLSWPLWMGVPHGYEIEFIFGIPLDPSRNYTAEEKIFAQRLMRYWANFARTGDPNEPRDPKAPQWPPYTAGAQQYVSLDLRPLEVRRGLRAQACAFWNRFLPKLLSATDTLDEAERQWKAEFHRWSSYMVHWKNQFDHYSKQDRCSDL

Row | SMILES | nitric oxide radical scavenging activity [1] | Half Maximal Inhibitory Concentration IC50 H2O2 [3] | inhibition (tyrosinase [4]) [%] | Half Maximal Inhibitory Concentration IC50 NO. [1] | Half Maximal Inhibitory Concentration IC50 Superoxide [6] | IC50 (acetylcholinesterase [8]) [µM] | lipoxygenase inhibition / anti-inflammatory activity (5-lipoxygenase) | Inhibition Zone S. aureus ATCC 6538 (S. aureus ATCC 6538) | Inhibition Zone Methicillin Resistant S. aureus 15 [9] | Inhibition Zone E. coli DSM 1077 (E. coli DSM 1077) | also measured
1 | C=C(C)[C@H]1CC=C(C)CC1 [Limonene] | had activity |  |  |  |  |  |  |  |  |  | Half Maximal Inhibitory Concentration IC50 α-Glucosidase (α-glucosidase): 1.18 ± 0.06 ^a mg/mL; Half Maximal Inhibitory Concentration IC50 Acetylcholinesterase (acetylcholinesterase [2]; mean ± SD, triplicate): 0.08 ± 0.00 ^e,f,g,h,i mg/mL; Half Maximal Inhibitory Concentration IC50 Lipoxygenase (5-lipoxygenase; mean ± SD, triplicate): 0.11 ± 0.01 ^f mg/mL
2 | CC1(C)C2CCC1(C)C(O)C2 (stereo not shown) [Borneol] | had activity | --- | > 20 |  |  |  |  |  |  |  | IC50 (acetylcholinesterase [2]; mean ± SD, triplicate, read-out: Half Maximal Inhibitory Concentration IC50 Acetylcholinesterase (converted)): 3110 µM
3 | C=CC(C)(CCC=C(C)C)OC(C)=O (stereo not shown) [Linalyl acetate] |  | --- | > 20 | --- | 18.23 ± 0.01 ^b mg/mL |  |  |  |  |  | Half Maximal Inhibitory Concentration IC50 DPPH [5]: 148.61 ± 1.28 ^a mg/mL; Half Maximal Inhibitory Concentration IC50 NO. ([1]; listed as linalyl acetate): had no ability; Half Maximal Inhibitory Concentration IC50 α-Glucosidase (α-glucosidase; listed as linalyl acetate): did not have activity; MIC against MRSA strains (MRSA strains): 450.50 ± 0.00 μL/mL
4 | CC1=CCC2CC1C2(C)C (stereo not drawn) [α-Pinene] | had activity | --- |  |  |  | 147 |  |  |  |  | tyrosinase inhibition percentage, major terpenes (tyrosinase [7]): lowest ability
5 | CC12CCC(CC1=O)C2(C)C (stereo not shown) [Camphor] |  | --- | > 20 | --- | --- |  | weak anti-inflammatory activity | 10.5 ± 1.22 ^c mm | 11.67 ± 1.02 ^b,c mm | 13.00 ± 0.40 ^b mm | Inhibition Zone S. aureus ATCC 6538 (S. aureus ATCC 6538; listed as camphor): 10.5 ± 1.22 mm
6 | [H]/N=C(\N/C(=N/[H])NCCCCCCNC(=N)NC(=N)Nc1ccc(Cl)cc1)Nc1ccc(Cl)cc1 [chlorohexidine] |  |  |  |  |  |  |  |  |  |  | biofilm formation of MRSA 15 (MRSA 15 biofilm): reduced biofilm formation; biofilm formation of S. aureus ATCC 6538 [10]: induced the biofilm formation; biofilm formation of E. coli DSM 1077 (E. coli DSM 1077 biofilm): reduced biofilm formation
7 | CC1=CC[C@@H](C(C)(C)O)CC1 [α-Terpineol] | had activity | --- | > 20 |  |  | 8430 | weak anti-inflammatory activity |  |  |  | Half Maximal Inhibitory Concentration IC50 α-Glucosidase (α-glucosidase): had no activity
8 | CC12CCC(CC1)C(C)(C)O2 [1,8-Cineole] |  |  | > 20 | --- |  | 64.8 | weak anti-inflammatory activity | 10.5 ± 0.70 ^c mm | 12.16 ± 0.47 ^b mm | 12.16 ± 0.62 ^b,c mm | IC50 (acetylcholinesterase [2]): 1170 µM; Inhibition Zone S. aureus ATCC 6538 (S. aureus ATCC 6538; listed as 1,8-cineole): 10.5 ± 0.70 mm
9 | C=CC(C)(O)CCC=C(C)C (stereo not shown) [Linalool] |  |  | > 20 | --- | 20.41 ± 1.47 ^b mg/mL |  | weak anti-inflammatory activity | 12.83 ± 0.47 ^b,c mm | 13.83 ± 1.24 ^b mm | 15.67 ± 0.23 ^a mm | Half Maximal Inhibitory Concentration IC50 DPPH [5]: 102.34 ± 3.13 ^b mg/mL; Half Maximal Inhibitory Concentration IC50 NO. ([1]; listed as linalool): had no ability; Half Maximal Inhibitory Concentration IC50 α-Glucosidase (α-glucosidase; listed as linalool): did not have activity; Inhibition Zone S. aureus ATCC 6538 (S. aureus ATCC 6538; listed as linalool): 12.83 ± 0.47 mm; Inhibition Zone Methicillin Resistant S. aureus 15 ([9]; listed as linalool): 13.83 ± 1.24 mm; Inhibition Zone E. coli DSM 1077 (E. coli DSM 1077; listed as linalool): 15.67 ± 0.23 mm; inhibition zone against S. aureus (S. aureus): 13.0 ± 4.2 mm; inhibition zone against E. coli (E. coli): 10.3 ± 0.5 mm
10 | O=C(N[C@H](CO)[C@H](O)c1ccc([N+](=O)[O-])cc1)C(Cl)Cl [Chloramphenicol] |  |  |  |  |  |  |  | 10.16 ± 0.70 ^c mm | 6.00 ± 0.00 ^d mm |  | zone of inhibition at 30 µg/mL (S. aureus ATCC 6538; Staphylococcus aureus, ATCC6538): 10.2 ± 0.7 mm; zone of inhibition at 30 µg/mL ([9]; Staphylococcus aureus, MRSA): 6 mm; zone of inhibition at 30 µg/mL (E. coli DSM 1077; Escherichia coli, DSM1077): 10.8 ± 0.47 mm
